According to US4749694A, “Novel lysine esters used as absorption” (Merck & Co., Inc., priority 1984, dated 1988):

Tests used:
[1] = Absorption of sodium cefoxitin with varying concentrations of hexadecyl lysinate in rats, percent bioavailability (Example 9); type: in vivo, rat; conditions: for bioavailability: rat, serum, 2.5 mg, pH 6, rats, hexadecyl lysinate 0 mg/body, 2.5 mg sodium cefoxitin, pH 6
Description: Percent bioavailability was determined versus intravenous administration. Each animal received 2.5 mg sodium cefoxitin with varying amounts of hexadecyl lysinate.

[2] = Absorption of sodium cefoxitin with or without alcohol-lysine esters in rats, percent bioavailability versus intravenous (Example 6); conditions: for effect as absorption promoter at 5 mg/dose (in words): 5 mg/dose level, comparison with hexadecyl lysinate; for bioavailability: rat, serum, 2.5 mg
Description: Blood samples were collected, sodium cefoxitin assayed, and "area-under-the-curve"* calculated. Percent bioavailability was determined versus intravenous administration. Each animal received 2.5 mg sodium cefoxitin ±5.0 mg alcohol-lysine ester. From 3 to 12 animals were used for each compound.

[3] = Absorption of cytarabine with or without hexadecyl lysinate in rats, percent bioavailability versus intravenous (Example 8); conditions: rat, in vivo, 2.5 mg, pH 6, rats, 2.5 mg cytarabine ± 5.0 mg hexadecyl lysinate, 250 μl, pH 6, versus intravenous
Description: The absorption of cytarabine, an antineoplastic and antiviral agent, was tested in rats employing aqueous formulations of cytarabine and hexadecyl lysinate. The compounds were administered in a total volume of 250 μl at pH 6. Both rectal and duodenal sites in the intestine were tested. Blood samples were collected, cytarabine assayed, and "area-under-the-curve"* calculated. Percent bioavailability was determined versus intravenous administration. Each animal received 2.5 mg cytarabine ±5.0 mg hexadecyl lysinate. Three animals were used for each experiment.

In the case of `CCCCCCCCCCCCCCCCOC(=O)[C@@H](N)CCCCN` [Hexadecyl lysinate], the “concentration dependence of absorption promoting effect (in words)” value ([1]; Example 9) is reported as “act in a concentration dependent manner”.

In the case of `O=C(O)c1ccccc1O` [salicylate], the “effect as absorption promoter at 5 mg/dose (in words)” value [2] is reported as “ineffective”.

For `Nc1ccn([C@@H]2O[C@H](CO)[C@@H](O)[C@@H]2O)c(=O)n1` [Cytarabine], the bioavailability ([3]; duodenal, read-out: Percent Cytarabine Bioavailability (mean ± SE), Duodenal) was 5% and the bioavailability ([3]; rectal, read-out: Percent Cytarabine Bioavailability (mean ± SE), Rectal) was 6 ± 1.7%.

In the case of `O=C(O)CN(CCN(CC(=O)O)CC(=O)O)CC(=O)O` [EDTA], the “effect as absorption promoter at 5 mg/dose (in words)” value [2] is reported as “ineffective”.

Compound `CO[C@@]1(NC(=O)Cc2cccs2)C(=O)N2C(C(=O)O)=C(COC(N)=O)CS[C@@H]21` [Cefoxitin] has a bioavailability ([2]; intestinal absorption of sodium cefoxitin, with 5 mg/dose promoter (hexadecyl lysinate) or without) of 1%, a bioavailability ([2]; pH 7, Percent Cefoxitin Bioavailability (mean ± SE), Duodenal, rats, 2.5 mg sodium cefoxitin ± 5.0 mg alcohol-lysine ester, 250 μl, pH 7, versus intravenous) of 1% and a bioavailability ([2]; pH 7, Percent Cefoxitin Bioavailability (mean ± SE), Rectal, rats, 2.5 mg sodium cefoxitin ± 5.0 mg alcohol-lysine ester, 250 μl, pH 7, versus intravenous) of 2 ± 1.1%. It also gave a bioavailability ([1]; duodenal, read-out: Percent Cefoxitin Bioavailability (mean ± SE), Duodenal) of 1% and a bioavailability ([1]; rectal, read-out: Percent Cefoxitin Bioavailability (mean ± SE), Rectal) of 2 ± 1.1%.
